Laboratory results: PubChem BioAssay AID1963856 (Molecular Pharmacology Branch, DTP, NCI, 2024)

Test system: LG0567-F671-PDC KRAS tumor spheroid viability
Assay: Anticancer human tumor LG0567-F671-PDC patient-derived lung adenocarcinoma cell line growth inhibition [KRAS2]
Conditions: spheroids with HUVEC and MSC; for IC50: curve of first compound; for viability, T/C: stronger effect = lower value
Text: Multicellular complex tumor spheroid response to RAS pathway inhibitors in combination with a targeted agents in patient-derived cell lines with oncogenic KRAS variants from multiple cancer types
A high-throughput screen of multi-cell type tumor spheroids was designed to identify active combinations of targeted small molecules and KRAS pathway inhibitors. Complex spheroids include a stromal component modeled by human endothelial cells (HUVEC) and fibroblasts modeled by human mesenchymal stem cells (MSCs). The concentration ranges selected for each drug and investigational agent were based upon clinically achievable concentrations if the clinical Cmax of the agent was known.
Compounds. The drugs and investigational agents: BI-3406 (NSC825286), BAY-293 (NSC824723), batoprotafib (TNO155; NSC825523), sotorasib (AMG 510; NSC818433), MRTX1257 (NSC819558), elimusertib (BAY 1895344; NSC800525), molibresib (GSK525762; NSC774829), temuterkib (LY3214996; NSC803410), venetoclax (NSC766270), alisertib (NSC759677), olaparib (NSC753686), talazoparib (NSC767125), erdafitinib (NSC781556), ipatasertib (NSC767898), cabozantinib (NSC761068), nintedanib (NSC756659), abemaciclib (NSC768073), docetaxel (NSC628503), trametinib (NSC758246), and sapanisertib (NSC764658) were obtained from the National Cancer Institute (NCI) Developmental Therapeutics Program Chemical Repository. The FDA-approved anticancer drug set is available from the Developmental Therapeutics Program. […] The stock solutions were prepared in dimethyl sulfoxide (DMSO, Sigma-Aldrich, St. Louis, MO, cat. D2650) at 800-fold the tested concentration and stored at -70 degrees C prior to their use. All drugs and investigational agents were tested over a range starting from a high concentration at or near the clinical Cmax and decreasing in half-log increments. If the clinical Cmax for an agent had not been determined, the highest concentration tested was 10 microM.
Cell Culture. All cells were maintained in an incubator at 37 degrees C and 5% CO2 with 95% humidity. The PDC lines were cultured according to standard operating procedures established by the NCI PDMR (https://pdmr.cancer.gov/sops/default.htm). Briefly, all PDCs were thawed and cultured in Matrigel-coated flasks prepared with a working solution of 1X Ham's F-12 nutrient mix, without supplementation (Invitrogen, Waltham, MA, cat. 11765054), 100 U/mL penicillin-streptomycin (Invitrogen, cat. 15140122), and 2.5% Matrigel (Corning Inc., Corning, NY, cat. 354248) for the first three passages. All PDCs were cultured in complete DMEM/F-12 media containing advanced DMEM/F-12 (Invitrogen, cat. 12634028), 4.9% defined fetal bovine serum, heat inactivated (HyClone Laboratories Inc., Logan, UT, cat. SH30070.03HI), 389 ng/mL hydrocortisone (Sigma-Aldrich, cat. H4001), 9.7 ng/mL human EGF recombinant protein (Invitrogen, cat. PHG0313), 23.4 microg/mL adenine (Sigma-Aldrich, cat. A2786), 97.3 U/mL penicillin-streptomycin (Invitrogen, cat. 15140122), 1.9 mM L-glutamine (Invitrogen, cat. 25030081), and 9.7 microM Y-27632 dihydrochloride (Tocris Bioscience, Bristol, United Kingdom, cat. 1254). The PDCs were cultured in complete DMEM/F12 media without 9.7 microM Y-27632 dihydrochloride for at least two passages prior to the screen. The established cell line HOP-62 was cultured in RPMI 1640 medium, HEPES (Invitrogen, cat. 22400105) with 10% defined fetal bovine serum (HyClone Laboratories Inc., cat. SH30070.03) and 2 mM L-glutamine (Invitrogen, cat. 25030081). The pooled donor HUVEC were cultured in endothelial cell growth medium 2 (PromoCell, Heidelberg, Germany, cat. C-22011) and the hMSC were cultured in mesenchymal stem cell growth medium 2 (PromoCell, cat. C-28009). For all experiments, HUVEC and hMSC were used at passages </=5, while the malignant cell lines were used at passages </=15. […]

[1] = second compound 0.1 µM, first compound 0.0316 µM
[2] = second compound 0.1 µM, first compound 0.1 µM
[3] = second compound 0.1 µM, first compound 0.316 µM
[4] = second compound 0.1 µM, first compound 1 µM
[5] = second compound 0.1 µM, first compound 3.16 µM
[6] = second compound 0.1 µM, first compound 10 µM
[7] = second compound 0.316 µM, first compound 0.0316 µM
[8] = second compound 0.316 µM, first compound 0.1 µM
[9] = second compound 0.316 µM, first compound 0.316 µM
[10] = second compound 0.316 µM, first compound 1 µM
[11] = second compound 0.316 µM, first compound 3.16 µM
[12] = second compound 0.316 µM, first compound 10 µM
[13] = second compound 1 µM, first compound 0.0316 µM
[14] = second compound 1 µM, first compound 0.1 µM
[15] = second compound 1 µM, first compound 0.316 µM
[16] = second compound 1 µM, first compound 1 µM
[17] = second compound 1 µM, first compound 3.16 µM
[18] = second compound 1 µM, first compound 10 µM
[19] = second compound 3.16 µM, first compound 0.0316 µM
[20] = second compound 3.16 µM, first compound 0.1 µM
[21] = second compound 3.16 µM, first compound 0.316 µM
[22] = second compound 3.16 µM, first compound 1 µM
[23] = second compound 3.16 µM, first compound 3.16 µM
[24] = second compound 3.16 µM, first compound 10 µM
[25] = second compound 10 µM, first compound 0.0316 µM
[26] = second compound 10 µM, first compound 0.1 µM
[27] = second compound 10 µM, first compound 0.316 µM
[28] = second compound 10 µM, first compound 1 µM
[29] = second compound 10 µM, first compound 3.16 µM
[30] = second compound 10 µM, first compound 10 µM
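Further: drug exposure lasted seven days after spheroids formed for three days.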
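Wherever viability, T/C is given: 100% = DMSO vehicle control viability.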

SMILES	IC50 (second compound 0.1 µM)	IC50 (second compound 0.316 µM)	IC50 (second compound 1 µM)	IC50 (second compound 3.16 µM)	IC50 (second compound 10 µM)	viability, T/C [1]	viability, T/C [2]	viability, T/C [3]	viability, T/C [4]	viability, T/C [5]	viability, T/C [6]	viability, T/C [7]	viability, T/C [8]	viability, T/C [9]	viability, T/C [10]	viability, T/C [11]	viability, T/C [12]	viability, T/C [13]	viability, T/C [14]	viability, T/C [15]	further results
COC(=O)c1ccc2c(C(=Nc3ccc(N(C)C(=O)CN4CCN(C)CC4)cc3)c3ccccc3)c(O)[nH]c2c1 + C=CC(=O)N1CCN(c2nc(=O)n(-c3c(C)ccnc3C(C)C)c3nc(-c4c(O)cccc4F)c(F)cc23)C(C)C1	< 31.6 nM	< 31.6 nM	< 31.6 nM	< 31.6 nM	< 31.6 nM	23.1%	22%	25.9%	28.3%	30%	33%	20.8%	23.3%	20.1%	23.2%	29.7%	27.9%	21.7%	22%	21.6%	viability, T/C [16]: 32%; viability, T/C [17]: 26.6%; viability, T/C [18]: 30.1%; viability, T/C [19]: 18.8%; viability, T/C [20]: 18.8%; viability, T/C [21]: 19.6%; viability, T/C [22]: 22.6%; viability, T/C [23]: 28%; viability, T/C [24]: 30.1%; viability, T/C [25]: 26.3%; viability, T/C [26]: 24.4%; viability, T/C [27]: 22.2%; viability, T/C [28]: 24.6%; viability, T/C [29]: 27.9%; viability, T/C [30]: 1.41%
O=C(c1cc(Cc2n[nH]c(=O)c3ccccc23)ccc1F)N1CCN(C(=O)C2CC2)CC1 + C=CC(=O)N1CCN(c2nc(=O)n(-c3c(C)ccnc3C(C)C)c3nc(-c4c(O)cccc4F)c(F)cc23)C(C)C1	< 31.6 nM	< 31.6 nM	< 31.6 nM	< 31.6 nM	< 31.6 nM	24.8%	21.5%	23.1%	26.7%	29.2%	33.6%	23.1%	22.8%	25.1%	21.5%	26.9%	30.4%	25.8%	25.6%	25.2%	viability, T/C [16]: 23.6%; viability, T/C [17]: 25.4%; viability, T/C [18]: 30.4%; viability, T/C [19]: 25.1%; viability, T/C [20]: 27.8%; viability, T/C [21]: 25.7%; viability, T/C [22]: 23.8%; viability, T/C [23]: 23.9%; viability, T/C [24]: 31.8%; viability, T/C [25]: 32.1%; viability, T/C [26]: 32.1%; viability, T/C [27]: 31.9%; viability, T/C [28]: 30%; viability, T/C [29]: 30.4%; viability, T/C [30]: 28.3%
